Our source for the TGI values is PubChem BioAssay (NCI).

Structures are written as SMILES.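 The compound was tested at five concentrations on cells cultured in 96-well plates, with a 48-hour exposure period. The concentration for full growth arrest is given as TGI.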 Where only a bound is given, the exact number is not on record here.

Test systems include RXF-631 renal; DMS 273 small cell lung; XF 498 CNS; HOP-18 NSCLC; M19-MEL melanoma; LXFL 529 NSCLC; SNB-78 CNS; SF-539 CNS; DLD-1 colon; DMS 114 small cell lung; KM20L2 colon.
Test in all cases: growth of human tumour cells (NCI), 48 h

For the compound `CC1=CC(=O)NP(=O)(Oc2ccc(C)cc2)N1` (stereo not drawn), the TGI in the experiment with RXF-631 renal, in the experiment with DMS 273 small cell lung, in the experiment with XF 498 CNS, in the experiment with HOP-18 NSCLC, in the experiment with M19-MEL melanoma and with LXFL 529 NSCLC was greater than 100 µM throughout. The TGI in the experiment on SNB-78 CNS, with SF-539 CNS, in the experiment on DLD-1 colon, in the experiment on DMS 114 small cell lung and in the experiment with KM20L2 colon was greater than 100 µM each time.

Regarding `CCCN(CCCCC(NC(C)=O)C(=O)NCc1ccccc1)C(=O)N(CCCl)N=O` (stereo not drawn), the TGI in the experiment with RXF-631 renal, in the experiment on DMS 273 small cell lung, in the experiment with XF 498 CNS, with HOP-18 NSCLC, with M19-MEL melanoma and with LXFL 529 NSCLC was greater than 100 µM in each case. The TGI in the experiment with SNB-78 CNS is greater than 100 µM; with SF-539 CNS, 41.1 µM; in the experiment on DLD-1 colon, greater than 100 µM; in the experiment on DMS 114 small cell lung it was greater than 100 µM; in the experiment on KM20L2 colon, greater than 100 µM.

Take `COc1cc2c(c(OC)c1OC)-c1ccc(SC)c(=O)cc1C(CC(=O)Oc1ccc([N+](=O)[O-])cc1)C2` (stereo not drawn): the TGI was 0.052 µM with RXF-631 renal; greater than 36.9 µM with DMS 273 small cell lung; 4.73 µM with XF 498 CNS; greater than 48.9 µM in the experiment on HOP-18 NSCLC; 36.9 µM with M19-MEL melanoma; greater than 34.6 µM in the experiment with LXFL 529 NSCLC. The TGI stood at 41 µM in the experiment with SNB-78 CNS; 0.636 µM in the experiment with SF-539 CNS; 8.69 µM with DLD-1 colon; 0.677 µM with DMS 114 small cell lung; 0.465 µM with KM20L2 colon.
